Paper PMC12884772, “Macrophagic Sclerostin Loop2‐ApoER2 Interaction Required by Sclerostin for Cardiovascular Protective Action” (Advanced Science, 2025)

System: mouse macrophages (RAW 264.7)
Experiment: LPS‐induced inflammatory responses in mouse macrophages (RAW 264.7), siNC or siLrp8
Type: cell-based
Description: To determine whether the suppressive effects of sclerostin on inflammatory responses in macrophages were dependent on ApoER2 in vitro, PMA (100 ng/mL, 48 h)‐induced human differentiated macrophages (THP‐1 cells, Procell Life Science & Technology, CL‐0233) and mouse macrophages (RAW 264.7 cells, ATCC, TIB‐71) were utilized. Human differentiated macrophages or mouse macrophages were divided into 9 groups (n = 3 per group), respectively, including (1) siNC, (2) siNC + LPS, (3) siNC + LPS + SOST 500 nM or 250 nM, (4) siNC + LPS + SOST 1 µM or 500 nM, (5) siNC + LPS + SOST 2 µM or 1 µM, (6) siLrp8 + LPS + SOST 500 nM or 250 nM, (7) siLrp8 + LPS + SOST 1µM or 500 nM, (8) siLrp8 + LPS + SOST 2 µM or 1 µM, (9) siLrp8 + LPS. Cells in groups (6‐9) were transfected with siRNA targeting human/mouse Lrp8 (human siLrp8: Santa Cruz Biotechnology sc‐40097, mouse siLrp8: Santa Cruz Biotechnology sc‐40098), while cells in groups (1‐5) were transfected with empty vector as control (siNC). 24 h later, cells in group (3)/(6), (4)/(7), and (5)/(8) were treated with recombinant human or mouse sclerostin for 3 h at concentration of 500 nM or 250 nM, 1 µM or 500 nM, as well as 2 µM or 1 µM, respectively, while cells in groups (1), (2), and (9) were treated with vehicle. Then, cells in groups (2‐9) were treated with LPS (100 ng/mL or 1 µg/mL) for 18 h. All groups of cell lysates were collected for determining the mRNA expression levels of TNF‐α, MCP‐1, and IL‐10 (human or mouse, respectively) by RT‐PCR.^[ [34] ^] Cell mediums were collected for determining the protein expression/secretion levels of TNF‐α, MCP‐1, and IL‐10 (human or mouse, respectively) by ELISA.^[ [34] ^]
Total RNA was extracted from cells following the protocols of Trizol reagent (Invitrogen, 15 596 026). […] The relative gene expression levels were calculated using the 2^−ΔΔCt method with GAPDH as the reference gene.^[ [40] ^] […]

[1] = RAW 264.7, LPS 1 µg/mL 18 h, recombinant mouse sclerostin 250 nM-1 µM for 3 h, RT‐PCR and ELISA, n = 3

With “sclerostin: recombinant human/mouse full‐length sclerostin protein” as the substance, how does the “mRNA expression and protein expression/secretion of IL‐10” value [1] read?
Its value is “promoted”.

What about the “mRNA expression and protein expression/secretion of TNF‐α and MCP‐1” value [1] of the same substance?
The value was “inhibited”.

What about the “Effects of sclerostin on cytokine/chemokine expression/secretion upon Lrp8 silencing” value (RAW 264.7 with siLrp8, LPS 1 µg/mL 18 h) of the same substance?
The value was “not detected”.
